Literature values in US10149395B2, “Water-based organic solderability preservative, and electronic board and surface treatment method using the same” (TAMURA CORPORATION, priority 2016, dated 2018).

conditions: at 20 degrees C.

SMILES	solubility to water
COCC(C)OC(C)=O (stereo not shown) [Organic solvent F, propylene glycol monomethyl ether acetate]	18.5 g/100 g
COC(C)COC(C)COC(C)CO (stereo not shown) [Organic solvent A, tripropylene glycol monomethyl ether]	miscible in all proportions
OCC1CCCO1 (stereo not shown) [Organic solvent E, tetrahydrofurfuryl alcohol]	miscible in all proportions
OCCOc1ccccc1 [Organic solvent G, phenyl glycol]	2.7 g/100 g
COCC(C)O (stereo not shown) [Organic solvent C, propylene glycol monomethyl ether]	miscible in all proportions
COCCOCCOCCOCCOC [Organic solvent D, tetraethylene glycol dimethyl ether]	miscible in all proportions

The remaining lines, values ahead:

solubility to water	SMILES
miscible in all proportions	CC(C)O [Organic solvent K, isopropyl alcohol]
0.4 g/100 g	CCCCOCC(C)OCC(C)OCC(C)O (stereo not shown) [Organic solvent H, butylpropylene triglycol]
miscible in all proportions	CCO [Organic solvent J, ethyl alcohol]
0.3 g/100 g	CCCCOCCOCCOCCCC [Organic solvent I, diethylene glycol dibutylether]
